Assay results taken from PMC4013070, “The Imaging of Insulinomas Using a Radionuclide-Labelled Molecule of the GLP-1 Analogue Liraglutide: A New Application of Liraglutide” (PLoS ONE, 2014).

Assays:
[1] = In vitro stability in fetal bovine serum; format: in vitro ADME; conditions: 37°C, 0 h
[2] = system: INS-1 insulinoma xenograft; assay: In vivo distribution of radioactivity across organs in nude mouse insulinoma model; design: species or system BALB/c nude mice; conditions: 90 min after injection of approx. 100 µCi, from %ID/g, mean ± SD, N = 3
Experimental: (§1) A total of 24 nude mice were each subcutaneously injected in the armpit of the right upper limb with 100 µl of a suspension of INS-1 cells (containing approximately 10^7 cells per 100 µl). The nude mice were reared under conventional sterile conditions and given 5% dextrose injections as drinking water (Shanghai Changzheng Fumin Jinshan Pharmaceutical, Shanghai, China). Their blood glucose levels were monitored every 2–3 days with a glucometer (Accu-Chek Integra integrated blood glucose meter, Roche, Berlin, Germany), and all measured blood glucose levels were at least 3 mmol/L.
Six nude mice each received a 100 µl injection containing approximately 100 µCi of ^125I-liraglutide. At 90 min and 360 min after this injection, 3 mice were sacrificed by cervical dislocation. First, blood was collected from the heart; next, isolated various organs and tissues, including the heart, lungs, liver, stomach, kidneys, spleen, small intestine, and pancreas, as well as muscle tissue and the tumour; the isolated samples were then placed into tubes that were impervious to γ radiation and weighed. For each tube, the radioactivity in counts per minute was then measured by a γ counter. The results were presented in terms of %ID/g (the percentage of the total injected dose of radioactivity per gram of tissue). Histograms of %ID/g for various organs at the 90 min and 360 min time points were plotted.

[3] = system: INS-1 insulinoma xenograft; assay: In vivo blocking experiment with unlabelled liraglutide (biodistribution); design: species or system BALB/c nude mice; conditions: 100 µg unlabelled liraglutide i.v. 30 min before approx. 100 µCi tracer, 90 min, p<0.05, N = 3
Experimental: as §1
In this experiment, 100 µl of liraglutide solution containing 100 µg of unlabelled liraglutide, was injected into the tail veins of each of 3 nude mice with insulinoma. Half an hour later, 100 µl of ^125I-liraglutide solution containing approximately 100 µCi of ^125I-liraglutide was injected into the tail vein of each mouse. To create an unblocked experimental group that corresponded with this blocked group, 100 µl of ^125I-liraglutide solution containing approximately 100 µCi of ^125I-liraglutide was injected into the tail veins of each of 3 more nude mice with insulinoma. These six nude mice with insulinoma were sacrificed by cervical dislocation at 90 min after the ^125I-liraglutide injection. First, blood was collected from the heart and various organs and tissues were isolated; the isolated samples were then placed into tubes that were impervious to γ radiation and weighed. For each tube, the radioactivity in counts per minute was then measured by a γ counter. The results were presented in terms of %ID/g. A histogram of %ID/g for various organs at the 90 min time point in the blocked and unblocked groups was plotted.

[4] = in vivo; cited from earlier work
Excerpt: This approach can be utilised for qualitative diagnoses, accurate staging, and evaluation of treatment efficacy. However, the detection rate of SSTR imaging for insulinoma is not high. […] This limited utility is because in tumours, among the five subtypes of SSTRs (SSTR1-SSTR5), radionucli ...

[5] = biological target: GLP-1 receptors; design: method as in PMID 23652208; conditions: Rin-m5f insulinoma cells, earlier exendin-4 imaging study of the authors; cited from earlier work
[6] = cited from earlier work

**Q.** With `CCCCCCCCCCCCCCCC(=O)N[C@@H](CCC(=O)NCCCC[C@H](NC(=O)[C@H](C)NC(=O)[C@H](C)NC(=O)[C@H](CCC(N)=O)NC(=O)CNC(=O)[C@H](CCC(=O)O)NC(=O)[C@H](CC(C)C)NC(=O)[C@H](Cc1ccc(O)c(I)c1)NC(=O)[C@H](CO)NC(=O)[C@H](CO)NC(=O)[C@@H](NC(=O)[C@H](CC(=O)O)NC(=O)[C@H](CO)NC(=O)[C@@H](NC(=O)[C@H](Cc1ccccc1)NC(=O)[C@@H](NC(=O)CNC(=O)[C@H](CCC(=O)O)NC(=O)[C@H](C)NC(=O)[C@@H](N)Cc1c[nH]cn1)[C@@H](C)O)[C@@H](C)O)C(C)C)C(=O)N[C@@H](CCC(=O)O)C(=O)N[C@@H](Cc1ccccc1)C(=O)N[C@H](C(=O)N[C@@H](C)C(=O)N[C@@H](Cc1c[nH]c2ccccc12)C(=O)N[C@@H](CC(C)C)C(=O)N[C@H](C(=O)N[C@@H](CCCNC(=N)N)C(=O)NCC(=O)N[C@@H](CCCNC(=N)N)C(=O)NCC(=O)O)C(C)C)[C@@H](C)CC)C(=O)O` [125I-liraglutide] as the compound, how does the “intact peptide in fetal bovine serum” value [1] read?
**A.** The value was 92.9%.

**Q.** And the “T/NT ratio, tumour to muscle tissue” value [2]?
**A.** Its value is 4.83±1.30.

**Q.** What about the “T/NT ratio, tumour to pancreatic tissue” value [2] of the same compound?
**A.** The value was 2.73±0.80.

**Q.** And the “radioactivity (%ID/g) of the lungs after blocking” value [3]?
**A.** Its value is “significantly decreased”.

**Q.** And the “radioactivity (%ID/g) of the pancreas after blocking” value [3]?
**A.** The value was “significantly decreased”.

**Q.** What about the “radioactivity (%ID/g) of the tumour after blocking” value [3] of the same compound?
**A.** Its value is “significantly reduced”.

**Q.** With Glucagon-like peptide-1 [GLP-1] as the compound, how does the serum half-life [4] read?
**A.** The serum half-life was “less than 2 min”.

**Q.** For Exendin-4, which IC50 [5] is on record?
**A.** Its IC50 is 0.35 to 2.81 nM.

**Q.** What about the Kd [5] of the same compound?
**A.** The Kd was 56.6 nM.

**Q.** For `CCCCCCCCCCCCCCCC(=O)N[C@@H](CCC(=O)NCCCC[C@H](NC(=O)[C@H](C)NC(=O)[C@H](C)NC(=O)[C@H](CCC(N)=O)NC(=O)CNC(=O)[C@H](CCC(=O)O)NC(=O)[C@H](CC(C)C)NC(=O)[C@H](Cc1ccc(O)cc1)NC(=O)[C@H](CO)NC(=O)[C@H](CO)NC(=O)[C@@H](NC(=O)[C@H](CC(=O)O)NC(=O)[C@H](CO)NC(=O)[C@@H](NC(=O)[C@H](Cc1ccccc1)NC(=O)[C@@H](NC(=O)CNC(=O)[C@H](CCC(=O)O)NC(=O)[C@H](C)NC(=O)[C@@H](N)Cc1cnc[nH]1)[C@@H](C)O)[C@@H](C)O)C(C)C)C(=O)N[C@@H](CCC(=O)O)C(=O)N[C@@H](Cc1ccccc1)C(=O)N[C@H](C(=O)N[C@@H](C)C(=O)N[C@@H](Cc1c[nH]c2ccccc12)C(=O)N[C@@H](CC(C)C)C(=O)N[C@H](C(=O)N[C@@H](CCCNC(=N)N)C(=O)NCC(=O)N[C@@H](CCCNC(=N)N)C(=O)NCC(=O)O)C(C)C)[C@@H](C)CC)C(=O)O` [liraglutide], which in vivo half-life [6] is on record?
**A.** Its in vivo half-life is “up to 13 h”.
